Assay results taken from paper PMC12860872, “Preclinical evaluation of DOTAGA.Glu.(FAPI)2 and DO3A.Glu.(FAPI)2 as theranostics with human dosimetry extrapolation to lutetium-177 and terbium-161 analogs” (European Journal of Nuclear Medicine and Molecular Imaging, 2025).
Several values for one entry are separate records, joined by “and”; a condition that tells them apart may be missing. Equal entries are not always repeated.

Legend:
PC3-mice = experiment: Organ clearance biological half-lives from biodistribution data; type: in vivo, mouse; settings: PC3-mice, One-Phase Decay Model
Experimental: Blood samples were collected from the facial vein at 1, 3, 5, 7, 10, 15, 20, 30, 45, 60, 240, and 1440 min p.i., weighed, and measured for radioactivity using a γ-counter. Results were expressed as % I.A./g of blood and plotted over time. The initial and terminal half-lives were determined using Two-Phase Decay Model. The biological half-lives of selected organs were calculated from the biodistribution data using One-Phase Decay Model (GraphPad Prism 8).

[1] = Extrapolated human dosimetry (OLINDA/EXM, ICRP-89 phantoms); parameters: TIAC average pancreas: unit not given beside the values; TIAC average stomach / TIAC average Small Intestine / TIAC average Left Column / TIAC average Rectum / TIAC average adrenal / TIAC average bone / TIAC average Red marrow / TIAC average salivary glands / TIAC average ROB / TIAC average Total Frac IA / TIAC average heart content / TIAC average heart wall / TIAC average liver / TIAC average spleen / TIAC average lung / TIAC average kidney: unit not given here
Experimental: To address inter-animal variability, the TIACs for each source organ were calculated from both the mean nTACs and the nTACs obtainend from fitting the mean ± 1 standard deviation (SD) of the normalized time-activity data, providing upper and lower bounds.
The mice-to-human TIAC extrapolation accounted for species-specific differences in relative source organ masses, m(organ), as compared to the total body weight (WB), for the mice (m) and human (h) models respectively.
(§1) The human organ masses, m(organ)h, were obtained from ICRP-89 adult male and female reference phantoms, while the murine organ masses, m(organ)m, were derived from the standard MOBY mouse model. The extrapolated human TIACs, TIACh were entered in the OLINDA/EXM software to compute the absorbed doses to target organs and the effective dose for adult male, female, and gender-averaged human models. […]
The TIACs, for [177Lu]Lu-DOTAGA.Glu.(FAPI)2 and [177Lu]Lu-DO3A.Glu.(FAPI)2, were determined by time integration of the nTACs. To account for the inter-animal variability, the TIACs for each source organ were calculated using both the mean nTACs and the nTACs obtainend from fitting the mean ±1 standard deviation (SD) of the normalized time-activity data. This approach provided the upper and the lower bounds for the estimated TIACs.
The mice-to-human TIAC extrapolation was obtained considering the different (species-specific) relative source organ masses, m(organ), as compared to the total body weight (WB), for the mice (m) and human (h) models respectively.
as §1, with “the” for “ICRP-89”, “models phantoms defined in ICRP-89,” for “phantoms,”, “TIACs values, TIACh, for each source organ” for “TIACs, TIACh”, “input into the kinetic module of” for “entered in”, “software (version 2.1, HERMES Medical Solutions AB, Stockholm, Sweden)” for “software”

[2] = ICRP 89 Adult Female, extrapolated
[3] = ICRP 89 Adult Male, extrapolated
[4] = human extrapolation, male-female range

Bone clearance half-life, 95% confidence interval (PC3-mice): 14.85 to 18.53 h
Kidney clearance half-life, 95% confidence interval (PC3-mice): 18.73 to 31.89 h
Liver clearance half-life, 95% confidence interval (PC3-mice): 51.46 to 92.13 h
Pancreas clearance half-life, 95% confidence interval (PC3-mice): 12.66 to 19.50 h
Salivary glands clearance half-life, 95% confidence interval (PC3-mice): 13.95 to 20.7 h
Tumor clearance half-life, 95% confidence interval (PC3-mice): 17.58 to 22.85 h
Absorbed dose (AD average) Adrenals [1, 2]: 9.96E-03 mGy/Mbq
Absorbed dose (AD average) Brain [1, 2]: 2.63E-02 mGy/Mbq
Absorbed dose (AD average) Breasts [1, 2]: 2.57E-02 mGy/Mbq
Absorbed dose (AD average) Esophagus [1, 2]: 2.66E-02 mGy/Mbq
Absorbed dose (AD average) Eyes [1, 2]: 2.63E-02 mGy/Mbq
Absorbed dose (AD average) Gallbladder Wall [1, 2]: 2.80E-02 mGy/Mbq
Absorbed dose (AD average) Heart Wall [1, 2]: 2.49E-02 mGy/Mbq
Absorbed dose (AD average) Left colon [1, 2]: 6.93E-02 mGy/Mbq
Absorbed dose (AD average) Ovaries [1, 2]: 2.76E-02 mGy/Mbq
Absorbed dose (AD average) Rectum [1, 2]: 7.09E-02 mGy/Mbq
Absorbed dose (AD average) Right colon [1, 2]: 4.88E-02 mGy/Mbq
Absorbed dose (AD average) Stomach Wall [1, 2]: 3.65E-02 mGy/Mbq
Absorbed dose (AD average) Thymus [1, 2]: 2.70E-02 mGy/Mbq
Absorbed dose (AD average) Thyroid [1, 2]: 2.64E-02 mGy/Mbq
Absorbed dose (AD average) Urinary Bladder Wall [1, 2]: 2.73E-02 mGy/Mbq
Absorbed dose (AD average) Uterus [1, 2]: 2.76E-02 mGy/Mbq
Effective dose (average) [1, 2]: 3.49E-02
Absorbed dose (AD average) Adrenals [1, 3]: 7.77E-03 mGy/Mbq
Absorbed dose (AD average) Brain [1, 3]: 2.00E-02 mGy/Mbq
Absorbed dose (AD average) Esophagus [1, 3]: 2.06E-02 mGy/Mbq
Absorbed dose (AD average) Eyes [1, 3]: 2.00E-02 mGy/Mbq
Absorbed dose (AD average) Gallbladder Wall [1, 3]: 2.20E-02 mGy/Mbq
Absorbed dose (AD average) Heart Wall [1, 3]: 2.04E-02 mGy/Mbq
Absorbed dose (AD average) Left colon [1, 3]: 5.77E-02 mGy/Mbq
Absorbed dose (AD average) Prostate [1, 3]: 2.07E-02 mGy/Mbq
Absorbed dose (AD average) Rectum [1, 3]: 5.76E-02 mGy/Mbq
Absorbed dose (AD average) Right colon [1, 3]: 3.94E-02 mGy/Mbq
Absorbed dose (AD average) Stomach Wall [1, 3]: 2.83E-02 mGy/Mbq
Absorbed dose (AD average) Testes [1, 3]: 2.00E-02 mGy/Mbq
Absorbed dose (AD average) Thymus [1, 3]: 2.03E-02 mGy/Mbq
Absorbed dose (AD average) Thyroid [1, 3]: 2.04E-02 mGy/Mbq
Absorbed dose (AD average) Urinary Bladder Wall [1, 3]: 2.07E-02 mGy/Mbq
Effective dose (average) ([1]; ICRP 89 Adult Male, extrapolated, in mSv/MBq (unit assumed)): 2.56E-02
absorbed dose kidneys [1, 4]: 0.02–0.03 Gy/GBq
absorbed dose liver [1, 4]: 0.06–0.07 Gy/GBq
absorbed dose salivary glands [1, 4]: 0.07–0.09 Gy/GBq
total body and effective doses [1, 4]: 0.027–0.034 Gy/GBq
TIAC average Left Column ([1]; human female, extrapolated): 0.0781
TIAC average ROB ([1]; human female, extrapolated): 16.8035
TIAC average Rectum ([1]; human female, extrapolated): 0.0808
TIAC average Red marrow ([1]; human female, extrapolated): 0.2208
TIAC average Small Intestine ([1]; human female, extrapolated): 0.1025
TIAC average Total Frac IA ([1]; human female, extrapolated): 21.2881
TIAC average adrenal ([1]; human female, extrapolated): 0.0008
TIAC average bone ([1]; human female, extrapolated): 2.8185
TIAC average heart content ([1]; human female, extrapolated): 0.0908
TIAC average heart wall ([1]; human female, extrapolated): 0.0329
TIAC average kidney ([1]; human female, extrapolated): 0.0717
TIAC average liver ([1]; human female, extrapolated): 1.1228
TIAC average lung ([1]; human female, extrapolated): 0.4313
TIAC average pancreas ([1]; human female, extrapolated): 0.0313
TIAC average salivary glands ([1]; human female, extrapolated): 0.0707
TIAC average spleen ([1]; human female, extrapolated): 0.0929
TIAC average stomach ([1]; human female, extrapolated): 0.0501
TIAC average Left Column ([1]; human male, extrapolated): 0.0642
TIAC average ROB ([1]; human male, extrapolated): 15.5056
TIAC average Rectum ([1]; human male, extrapolated): 0.0642
TIAC average Red marrow ([1]; human male, extrapolated): 0.2359
TIAC average Small Intestine ([1]; human male, extrapolated): 0.0958
TIAC average Total Frac IA ([1]; human male, extrapolated): 21.2881
TIAC average adrenal ([1]; human male, extrapolated): 0.0007
TIAC average bone ([1]; human male, extrapolated): 3.1852
TIAC average heart content ([1]; human male, extrapolated): 0.1028
TIAC average heart wall ([1]; human male, extrapolated): 0.0357
TIAC average kidney ([1]; human male, extrapolated): 0.0664
TIAC average liver ([1]; human male, extrapolated): 1.1865
TIAC average lung ([1]; human male, extrapolated): 0.4477
TIAC average pancreas ([1]; human male, extrapolated): 0.0300
TIAC average salivary glands ([1]; human male, extrapolated): 0.0706
TIAC average spleen ([1]; human male, extrapolated): 0.0881
TIAC average stomach ([1]; human male, extrapolated): 0.0446
Compound: N#C[C@@H]1CC(F)(F)CN1C(=O)CNC(=O)c1ccnc2ccc(OCCCCNC(=O)CC[C@H](NC(=O)CN3CCN(CC(=O)[O-])CCN(CC(=O)[O-])CCN(CC(=O)[O-])CC3)C(=O)NCCCCOc3ccc4nccc(C(=O)NCC(=O)N5CC(F)(F)C[C@H]5C#N)c4c3)cc12.[177Lu+3] [[^177Lu]Lu-DO3A.Glu.(FAPI)2]
Absorbed dose (AD average) Kidneys [1, 2]: 2.54E-02 ± 0.001 mGy/Mbq and 2.54E-02 mGy/Mbq
Absorbed dose (AD average) Liver [1, 2]: 7.30E-02 ± 0.003 mGy/Mbq and 7.30E-02 mGy/Mbq
Absorbed dose (AD average) Lungs [1, 2]: 4.16E-02 ± 0.01 mGy/Mbq and 4.16E-02 mGy/Mbq
Absorbed dose (AD average) Osteogenic Cells [1, 2]: 6.24E-02 ± 0.002 mGy/Mbq and 6.24E-02 mGy/Mbq
Absorbed dose (AD average) Pancreas [1, 2]: 2.62E-02 ± 0.001 mGy/Mbq and 2.62E-02 mGy/Mbq
Absorbed dose (AD average) Red Marrow [1, 2]: 3.06E-02 ± 0.001 mGy/Mbq and 3.06E-02 mGy/Mbq
Absorbed dose (AD average) Salivary Glands [1, 2]: 8.81E-02 ± 0.01 mGy/Mbq and 8.81E-02 mGy/Mbq
Absorbed dose (AD average) Small Intestine [1, 2]: 4.29E-02 ± 0.003 mGy/Mbq and 4.29E-02 mGy/Mbq
Absorbed dose (AD average) Spleen [1, 2]: 6.42E-02 ± 0.003 mGy/Mbq and 6.42E-02 mGy/Mbq
Absorbed dose (AD average) Total Body [1, 2]: 3.44E-02 ± 0.002 mGy/Mbq and 3.44E-02 mGy/Mbq
Absorbed dose (AD average) Kidneys [1, 3]: 2.09E-02 ± 0.001 mGy/Mbq and 2.09E-02 mGy/Mbq
Absorbed dose (AD average) Liver [1, 3]: 6.00E-02 ± 0.002 mGy/Mbq and 6.00E-02 mGy/Mbq
Absorbed dose (AD average) Lungs [1, 3]: 3.40E-02 ± 0.01 mGy/Mbq and 3.40E-02 mGy/Mbq
Absorbed dose (AD average) Osteogenic Cells [1, 3]: 6.64E-02 ± 0.002 mGy/Mbq and 6.64E-02 mGy/Mbq
Absorbed dose (AD average) Pancreas [1, 3]: 2.12E-02 ± 0.001 mGy/Mbq and 2.12E-02 mGy/Mbq
Absorbed dose (AD average) Red Marrow [1, 3]: 2.43E-02 ± 0.001 mGy/Mbq and 2.43E-02 mGy/Mbq
Absorbed dose (AD average) Salivary Glands [1, 3]: 7.27E-02 ± 0.01 mGy/Mbq and 7.27E-02 mGy/Mbq
Absorbed dose (AD average) Small Intestine [1, 3]: 3.27E-02 ± 0.002 mGy/Mbq and 3.27E-02 mGy/Mbq
Absorbed dose (AD average) Spleen [1, 3]: 5.27E-02 ± 0.002 mGy/Mbq and 5.27E-02 mGy/Mbq
Absorbed dose (AD average) Total Body [1, 3]: 2.71E-02 ± 0.001 mGy/Mbq and 2.71E-02 mGy/Mbq
